Consider 17 compounds from patent publication US20220289732A1, “HETEROCYCLIC WDR5 INHIBITORS AS ANTI-CANCER COMPOUNDS” (NOVARTIS AG, priority 2019, published 2022).

Bounds are passed on as bounds.

The target in one experiment is WDR5 (Homo sapiens, UniProt P61964). The experiment in a line: WDR5 HTRF binding assay. The note with it: read-out: (a) WDR5 HTRF Pep Val v.1[Inhibitor/IC50]Qualified AC50. Summed up:
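6 nM WDR5 and 20 nM biotin-MLL1 WIN peptide (3762-3773) were incubated with compound (12-point, 3-fold dilutions) in pH 7.5 Hepes/NaCl/DTT buffer for 20 min at rt. Streptavidin-APC plus anti-His-Eu were then added for 1 hr, with HTRF read at 665/615. IC50 was fit from control-normalized activity; the counter assay used 15 nM biotin-PEG-His peptide.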

For another experiment, the system named is MV4-11 cells. The experiment in a line: MV4-11 6-day cell growth CTG (CellTiter-Glo) assay. To be noted: Homo sapiens, MV4-11, 144 h, 6 days, read-out: (c) MLL/WDR5 cell proliferation assay//MLL/WDR5 proliferation MV4:11 Qualified AC50. Format: cell-based. Summed up:
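Exponentially growing MV4-11 AML cells (RPMI 1640, 10% FBS) seeded at 300 cells/well with 12-point 1:3 compound dilutions, top final concentration 50 μM. Viability read by CellTiter-Glo luminescence after 6 days at 37° C; % inhibition vs DMSO-only wells fitted to dose-response for IC50.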
For orientation: In ATP-based viability assays light output follows the ATP content of the culture.

Experiment [1] deals with wild type MLL1 four-member complex (MLL1-4C) (Homo sapiens, UniProt P61964). The experiment in a line: MLL1 LC-MS assay (SAH production). It is filed as biochemical. To be noted: read-out: (b) MLL LCMS Peptide Val.v.1 Qualified AC50. Summed up:
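MLL1-4C (30 nM final) was preincubated 20 min with compound (3-fold dilutions, 8 or 12 points) and SAM in Tris-HCl pH 8.0 buffer. H3K4me0 peptide (histone H3[1-21]-biotin) was then added, giving final 2.5 μM SAM and 10 μM substrate, and reactions ran 120 min at rt. After TFA/d4-SAH quench, SAH was quantified by LC-MS/MS and IC50 fitted from control-normalised activity.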

`CNc1nccn1Cc1cc(CN(C)CCF)c2c(c1)C(=O)N([C@@H](C)c1cc(OC)c(F)cn1)CC2` [Example 49, (S)-2-(1-(5-fluoro-4-methoxypyridin-2-yl)ethyl)-5-(((2-fluoroethyl)(methyl)amino)methyl)-7-((2-(methylamino)-1H-imidazol-1-yl)methyl)-3,4-dihydroisoquinolin-1(2H)-one]: the IC50 at WDR5 was 0.01 to 1 µM. Also, the AC50 (with MV4-11 cells; in experiment [1]) was 0.01 to 1 µM throughout.

`CNc1nccn1Cc1cc(CN2CC(F)C2)c2c(c1)C(=O)N(Cc1cc(OC)c(F)cn1)CC2` [Example 30, 2-((5-fluoro-4-methoxypyridin-2-yl)methyl)-5-((3-fluoroazetidin-1-yl)methyl)-7-((2-(methylamino)-1H-imidazol-1-yl)methyl)-3,4-dihydroisoquinolin-1(2H)-one]: the IC50 at WDR5 fell in the range of 0.01 to 1 µM. Further, the AC50 (in the experiment with MV4-11 cells; in experiment [1]) was 0.01 to 1 µM throughout.

For the compound `CCOc1cc([C@H](C)N2CCc3c(cc(CCN(C)CC)cc3-c3cc(C)cnc3C(F)F)C2=O)ncc1C#N` [Example 128, (S)-6-(1-(5-(2-(difluoromethyl)-5-methylpyridin-3-yl)-7-(2-(ethyl(methyl)amino)ethyl)-1-oxo-3,4-dihydroisoquinolin-2(1H)-yl)ethyl)-4-ethoxynicotinonitrile], the IC50 at WDR5 was less than 0.01 µM. For the same compound, the AC50 (in the experiment on MV4-11 cells; in experiment [1]) was 0.01 to 1 µM each time.

For `CNc1nccn1Cc1cc(CN2CC[C@H](F)C2)c2c(c1)C(=O)N([C@@H](C)c1cc(OC)c(F)cn1)CC2` [Example 44, 2-((S)-1-(5-fluoro-4-methoxypyridin-2-yl)ethyl)-5-(((S)-3-fluoropyrrolidin-1-yl)methyl)-7-((2-(methylamino)-1H-imidazol-1-yl)methyl)-3,4-dihydroisoquinolin-1(2H)-one], the IC50 on WDR5 was in the range of 0.01 to 1 µM. Besides, the AC50 (in the experiment with MV4-11 cells; in experiment [1]) was 0.01 to 1 µM each time.

For `CCOc1cc([C@H](C)N2CCc3c(cc(CCN4C[C@@H](O)[C@H]4C)cc3-c3cn(C)nc3C(F)F)C2=O)ncc1C#N` [Example 213, 6-((S)-1-(5-(3-(difluoromethyl)-1-methyl-1H-pyrazol-4-yl)-7-(2-((2R,3R)-3-hydroxy-2-methylazetidin-1-yl)ethyl)-1-oxo-3,4-dihydroisoquinolin-2(1H)-yl)ethyl)-4-ethoxynicotinonitrile], the IC50 on WDR5 is less than 0.01 µM. Moreover, the AC50 (in the experiment on MV4-11 cells; in experiment [1]) was 0.01 to 1 µM throughout.

For the compound `CNc1nccn1Cc1cc(CN(C)CC(F)(F)F)c2c(c1)C(=O)N([C@@H](C)c1cc(OC)c(F)cn1)CC2` [Example 47, (S)-2-(1-(5-fluoro-4-methoxypyridin-2-yl)ethyl)-5-((methyl(2,2,2-trifluoroethyl)amino)methyl)-7-((2-(methylamino)-1H-imidazol-1-yl)methyl)-3,4-dihydroisoquinolin-1(2H)-one], at WDR5, the IC50 was in the range of 0.01 to 1 µM. For the same compound, the AC50 (in the experiment on MV4-11 cells; in experiment [1]) was 0.01 to 1 µM in each case.

Consider `CCOc1cc([C@H](C)N2CCc3c(cc(Cn4ccnc4C)cc3-c3cn(C(F)F)nc3C)C2=O)ncc1C#N` [Example 286], for which, on WDR5, the IC50 is less than 0.01 µM. Also, the AC50 is less than 0.01 µM with MV4-11 cells and 0.01 to 1 µM in experiment [1].

In the case of `CCOc1cc([C@H](C)N2CCc3c(CN4CC(F)C4)cc(Cn4ccnc4NC)cc3C2=O)ncc1C#N` [Example 28, (S)-4-ethoxy-6-(1-(5-((3-fluoroazetidin-1-yl)methyl)-7-((2-(methylamino)-1H-imidazol-1-yl)methyl)-1-oxo-3,4-dihydroisoquinolin-2(1H)-yl)ethyl)nicotinonitrile], the IC50 at WDR5 lay within 0.01 to 1 µM. Also, the AC50 (with MV4-11 cells; in experiment [1]) was 0.01 to 1 µM in each case.

For `CCOc1cc(CN2CCc3c(cc(CCN(C)CC)cc3-c3cc(C)cnc3C(F)F)C2=O)ncc1C#N` [Example 144, 6-((5-(2-(difluoromethyl)-5-methylpyridin-3-yl)-7-(2-(ethyl(methyl)amino)ethyl)-1-oxo-3,4-dihydroisoquinolin-2(1H)-yl)methyl)-4-ethoxynicotinonitrile], the IC50 at WDR5 lay within 0.01 to 1 µM. The AC50 (with MV4-11 cells; in experiment [1]) was 0.01 to 1 µM in each case.

For the compound `CCOc1cc([C@H](C)N2CCc3c(cc(CCN4C[C@@H](O)C[C@@H]4C)cc3-c3ccc(F)nc3C)C2=O)ncc1C#N` [Example 227], the IC50 on WDR5 fell in the range of 0.01 to 1 µM. The AC50 in the experiment on MV4-11 cells lay in the range of 1 to 25 µM; in experiment [1], 0.01 to 1 µM.

As for `CNc1nccn1Cc1cc(-c2cc(CO)cnc2Cl)c2ccn(Cc3cc4ccccc4[nH]3)c(=O)c2c1` [Example 108, 2-((1H-indol-2-yl)methyl)-5-(2-chloro-5-(hydroxymethyl)pyridin-3-yl)-7-((2-(methylamino)-1H-imidazol-1-yl)methyl)isoquinolin-1(2H)-one], the IC50 on WDR5 lay within 0.01 to 1 µM. The AC50 (in the experiment with MV4-11 cells; in experiment [1]) was 0.01 to 1 µM in each case.

As to `CCOc1cc([C@H](C)N2CCc3ccc(Cn4ccnc4NC)cc3C2=O)cnc1Cl` [Example 95, (S)-2-(1-(6-chloro-5-ethoxypyridin-3-yl)ethyl)-7-((2-(methylamino)-1H-imidazol-1-yl)methyl)-3,4-dihydroisoquinolin-1(2H)-one], on WDR5, the IC50 was in the range of 0.01 to 1 µM. Besides, the AC50 (with MV4-11 cells; in experiment [1]) was 0.01 to 1 µM in each case.

For `CCOc1cc([C@@H](C)N2CCc3c(cc(CCN(C)CC)cc3-c3ccc(N)nc3C(F)(F)F)C2=O)ncc1C#N` [Example 199, (R)-6-(1-(5-(6-amino-2-(trifluoromethyl)pyridin-3-yl)-7-(2-(ethyl(methyl)amino)ethyl)-1-oxo-3,4-dihydroisoquinolin-2(1H)-yl)ethyl)-4-ethoxynicotinonitrile], the IC50 at WDR5 fell in the range of 0.01 to 1 µM. Further, the AC50 (with MV4-11 cells; in experiment [1]) was 0.01 to 1 µM throughout.

Regarding `CCOc1cc([C@H](C)N2CCc3c(cc(Cn4ccnc4C)cc3[C@H]3CCCN3C)C2=O)ncc1C#N` (single isomer, unassigned) [Example 267], the IC50 on WDR5 is less than 0.01 µM. For the same compound, the AC50 (in the experiment with MV4-11 cells; in experiment [1]) was 0.01 to 1 µM each time.

As for `CCOc1cc([C@H](C)N2CCc3c(cc(CCN(C)CC)cc3-c3cc(C)ncc3C)C2=O)ncc1C#N` [Example 163, (S)-6-(1-(5-(2,5-dimethylpyridin-4-yl)-7-(2-(ethyl(methyl)amino)ethyl)-1-oxo-3,4-dihydroisoquinolin-2(1H)-yl)ethyl)-4-ethoxynicotinonitrile], the IC50 at WDR5 was less than 0.01 µM. Moreover, the AC50 (with MV4-11 cells; in experiment [1]) was 0.01 to 1 µM in each case.

For the compound `CNc1nccn1Cc1cc2c(c(-c3cn(C)nc3C(F)(F)F)c1)CCN(Cc1ccc(F)c(OC)c1)C2=O` [Example 54, 2-(4-fluoro-3-methoxybenzyl)-5-(1-methyl-3-(trifluoromethyl)-1H-pyrazol-4-yl)-7-((2-(methylamino)-1H-imidazol-1-yl)methyl)-3,4-dihydroisoquinolin-1(2H)-one], at WDR5, the IC50 was in the range of 0.01 to 1 µM. In addition, the AC50 (with MV4-11 cells; in experiment [1]) was 0.01 to 1 µM throughout.

On to `CCOc1cc([C@H](C)N2CCc3c(cc(Cn4ccnc4C)cc3-c3cn(C)c(=O)cc3C(F)F)C2=O)ncc1C#N` [Example 285], for which the IC50 on WDR5 is less than 0.01 µM. In addition, the AC50 was less than 0.01 µM in the experiment on MV4-11 cells and 0.01 to 1 µM in experiment [1].
